Assay [1] concerns the target T1, CnAtg4T (truncated Cryptococcus neoformans ATG4) (Cryptococcus neoformans, UniProt J9VN57).
T1 construct: gene CNAG_02662; CnAtg4T, 6xHis, truncated version excluding the disordered N-terminus, retaining the catalytic triad Cys563/Asp782/His784
Kind of assay: microscale thermophoresis with labelled purified CnAtg4T; also in vitro cleavage assay (IC50 […]) and BRET. In kind it is binding. (MST reads how a fluorescent partner responds to local heating, with and without ligand.)

The target in assay [2] is T2, AnAtg4 (Aspergillus niger ATG4) (Aspergillus niger, UniProt A2QY50).
T2 construct: 6xHis-AnAtg4
T2 sequence (A2QY50 1-404): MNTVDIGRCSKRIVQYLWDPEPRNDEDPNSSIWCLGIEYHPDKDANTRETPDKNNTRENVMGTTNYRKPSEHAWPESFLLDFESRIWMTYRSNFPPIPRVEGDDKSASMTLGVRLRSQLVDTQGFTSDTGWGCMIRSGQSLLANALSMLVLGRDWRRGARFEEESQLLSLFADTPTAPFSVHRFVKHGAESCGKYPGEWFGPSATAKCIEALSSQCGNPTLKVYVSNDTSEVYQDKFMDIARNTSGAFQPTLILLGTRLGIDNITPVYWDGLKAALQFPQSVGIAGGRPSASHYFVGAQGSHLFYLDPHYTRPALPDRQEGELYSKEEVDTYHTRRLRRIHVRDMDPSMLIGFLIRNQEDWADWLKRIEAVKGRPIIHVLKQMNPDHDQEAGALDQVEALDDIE
Kind of assay: in vitro cleavage of AnAtg8 sensor by purified AnAtg4 at […] compound (immunoblot). Format: biochemical. (A western blot detects proteins with antibodies after separation by electrophoresis.)

Assay [3] has as its target T1, CnAtg4T (truncated Cryptococcus neoformans ATG4). Kind of assay: in vitro cleavage of CnAtg8 sensor by purified CnAtg4T (immunoblot) and BRET. Format: biochemical.

Each structure is given as a SMILES string.

The record followed here is publication PMC12723477, “Evaluating the Antifungal Potential of Autophagy-Related Protein 4 (ATG4) Inhibitors against Human Fungal Pathogens” (Journal of Microbiology and Biotechnology, 2025).

T1 sequence (J9VN57 entry or part of it): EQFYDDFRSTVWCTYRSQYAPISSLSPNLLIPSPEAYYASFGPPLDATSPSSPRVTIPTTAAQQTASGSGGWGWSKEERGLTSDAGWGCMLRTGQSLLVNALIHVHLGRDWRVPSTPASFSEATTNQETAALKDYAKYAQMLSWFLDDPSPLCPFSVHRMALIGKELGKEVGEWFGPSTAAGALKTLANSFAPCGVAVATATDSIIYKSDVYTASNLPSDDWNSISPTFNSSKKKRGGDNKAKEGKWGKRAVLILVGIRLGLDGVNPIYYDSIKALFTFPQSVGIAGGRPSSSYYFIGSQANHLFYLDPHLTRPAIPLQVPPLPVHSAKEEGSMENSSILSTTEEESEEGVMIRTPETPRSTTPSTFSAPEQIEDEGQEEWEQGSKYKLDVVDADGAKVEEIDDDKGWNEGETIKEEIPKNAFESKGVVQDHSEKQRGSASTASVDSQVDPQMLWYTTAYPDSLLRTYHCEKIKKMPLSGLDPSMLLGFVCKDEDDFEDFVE

What is called Kd is the equilibrium constant for the complex coming apart. A low value points to tighter binding. As to `O=c1c2ccccc2[se]n1-c1ccccc1` [EB, Ebselen], the equilibrium dissociation constant (Kd) in assay [1] was 0.7 ± 0.32 µM. Moreover, the “in vitro cleavage of AnAtg8 sensor by purified AnAtg4 at 10 μM compound (immunob)” value (shortened to “in vitro cleavage of AnAtg8 sensor”) in assay [2] was “the inhibitors exhibited comparable inhibitory effects on the ATG8 maturation catalyzed by AfAtg4 and AnAtg4 (Fig. 2D)”.

In general, IC50 refers to the concentration that gives 50% inhibition. Low values mean inhibition by little substance, high ones a need for much substance. The compound `O=C1c2ccccc2[Se](=O)N1c1ccccc1` (stereo not drawn) [EO, ebselen oxide] came in with an IC50 in assay [3] of 4.8 µM. In addition, in assay [2], the “in vitro cleavage of AnAtg8 sensor” value was “the inhibitors exhibited comparable inhibitory effects on the ATG8 maturation catalyzed by AfAtg4 and AnAtg4 (Fig. 2D)”.

Consider `Cc1ccc(-n2sc3ccccc3c2=O)cc1` [PT, 2-(4-methylphenyl)-1,2-benzisothiazol-3(2H)-one], for which the IC50 in assay [3] was 8.44 µM. Besides, the “in vitro cleavage of AnAtg8 sensor” value in assay [2] is “the inhibitors exhibited comparable inhibitory effects on the ATG8 maturation catalyzed by AfAtg4 and AnAtg4 (Fig. 2D)”.
